Biological target: T1, HGFR (Homo sapiens, UniProt P08581)
T1 construct: purchased Upstate 14-526
Assay: HGFR continuous-coupled spectrophotometric assay
Type: biochemical
Settings: at 1 pM; Table 6, library procedure 41; read-out: % Inhibition (percent c-MET inhibition)

T1 sequence (P08581 974-1390 limits assumed): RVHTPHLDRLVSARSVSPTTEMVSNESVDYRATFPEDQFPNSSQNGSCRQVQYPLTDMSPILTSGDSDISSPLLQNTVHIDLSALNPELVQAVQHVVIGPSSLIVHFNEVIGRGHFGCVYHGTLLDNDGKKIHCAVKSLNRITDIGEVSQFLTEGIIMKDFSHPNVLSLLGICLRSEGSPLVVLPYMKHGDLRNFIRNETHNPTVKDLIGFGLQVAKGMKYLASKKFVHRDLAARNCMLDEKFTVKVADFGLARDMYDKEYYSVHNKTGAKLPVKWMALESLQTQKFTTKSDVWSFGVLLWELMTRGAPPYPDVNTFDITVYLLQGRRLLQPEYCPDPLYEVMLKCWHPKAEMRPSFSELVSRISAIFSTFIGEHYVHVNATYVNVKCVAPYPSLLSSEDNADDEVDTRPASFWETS

SMILES | inhibition at 1 pM
Nc1ncc(C(=O)NCc2ccc(S(N)(=O)=O)cc2)cc1OCc1c(Cl)cccc1Cl [Example L-178] | 30%
CN1CCN(CCCNC(=O)c2cnc(N)c(OCc3c(Cl)cccc3Cl)c2)CC1 [Example L-179] | 24%
Nc1ncc(C(=O)NCCCO)cc1OCc1c(Cl)cccc1Cl [Example L-180] | 26%
Nc1ncc(C(=O)NCCN2CCOCC2)cc1OCc1c(Cl)cccc1Cl [Example L-181] | 31%
Nc1ncc(C(=O)NC(CO)Cc2ccc(Cl)cc2)cc1OCc1c(Cl)cccc1Cl [Example L-182] | 27%
COc1ccccc1CNC(=O)c1cnc(N)c(OCc2c(Cl)cccc2Cl)c1 [Example L-183] | 32%
Nc1ncc(C(=O)NCCc2c[nH]cn2)cc1OCc1c(Cl)cccc1Cl [Example L-185] | 29%
CN(C)c1ccc(CNC(=O)c2cnc(N)c(OCc3c(Cl)cccc3Cl)c2)cc1 [Example L-186] | 30%
Nc1ncc(C(=O)NC2CCSC2=O)cc1OCc1c(Cl)cccc1Cl [Example L-189] | 35%
CC(=O)NCCNC(=O)c1cnc(N)c(OCc2c(Cl)cccc2Cl)c1 [Example L-190] | 35%
Nc1ncc(C(=O)N2CCC(O)CC2)cc1OCc1c(Cl)cccc1Cl [Example L-194] | 35%
Nc1ncc(C(=O)NCc2ccc(O)cc2)cc1OCc1c(Cl)cccc1Cl [Example L-195] | 37%
Nc1ncc(C(=O)NCc2ccccc2OC(F)(F)F)cc1OCc1c(Cl)cccc1Cl [Example L-200] | 31%
CC(C)NC(=O)CN1CCN(C(=O)c2cnc(N)c(OCc3c(Cl)cccc3Cl)c2)CC1 [Example L-201] | 30%
CCN(CC)C(=O)C1CCCN(C(=O)c2cnc(N)c(OCc3c(Cl)cccc3Cl)c2)C1 [Example L-203] | 33%
Nc1ncc(C(=O)N2CCN(CCO)CC2)cc1OCc1c(Cl)cccc1Cl [Example L-204] | 51%

Further lines, results first:

inhibition at 1 pM | SMILES
26% | Nc1ncc(C(=O)NCCCN2CCOCC2)cc1OCc1c(Cl)cccc1Cl [Example L-177]
27% | Nc1ncc(C(=O)NC2CCN(Cc3ccccc3)C2)cc1OCc1c(Cl)cccc1Cl [Example L-184]
30% | Nc1ncc(C(=O)NCCc2ccc(S(N)(=O)=O)cc2)cc1OCc1c(Cl)cccc1Cl [Example L-187]
39% | NC(=O)C1CCCN(C(=O)c2cnc(N)c(OCc3c(Cl)cccc3Cl)c2)C1 [Example L-188]
38% | CN(C)CC(C)(C)CNC(=O)c1cnc(N)c(OCc2c(Cl)cccc2Cl)c1 [Example L-191]
37% | N#CC1(c2ccccc2)CCN(C(=O)c2cnc(N)c(OCc3c(Cl)cccc3Cl)c2)CC1 [Example L-193]
34% | Nc1ncc(C(=O)N2CCN(c3ccccn3)CC2)cc1OCc1c(Cl)cccc1Cl [Example L-196]
36% | Nc1ncc(C(=O)NCc2ccccc2Br)cc1OCc1c(Cl)cccc1Cl [Example L-197]
59% | COc1ccc(CNC(=O)c2cnc(N)c(OCc3c(Cl)cccc3Cl)c2)c(OC)c1 [Example L-198]
33% | Nc1ncc(C(=O)NCCc2ccccc2F)cc1OCc1c(Cl)cccc1Cl [Example L-199]
33% | Nc1ncc(C(=O)N2CCN(CCOCCO)CC2)cc1OCc1c(Cl)cccc1Cl [Example L-202]

Same assay, conditions: at 50 nM; Table 5, library procedure 40; read-out: % inhibition (percent c-MET inhibition)

inhibition at 0.05 µM | SMILES
68% | C[C@H](Oc1cc(-c2ccc(C(=O)N[C@H]3CC[C@H](CO)CC3)cc2)cnc1N)c1c(Cl)ccc(F)c1Cl [Example L-174]
60% | CC(Oc1cc(-c2ccc(C(=O)N3CCC(COCC4CC4)CC3)cc2)cnc1N)c1c(Cl)ccc(F)c1Cl [Example L-175]
51% | Cc1noc([C@H]2CC[C@H](CNC(=O)c3ccc(-c4cnc(N)c(O[C@@H](C)c5c(Cl)ccc(F)c5Cl)c4)cc3)CC2)n1 [Example L-176]

Same assay, conditions: read-out: % Inhibition (percent c-MET inhibition)

SMILES | inhibition at 1 pM
CCC(=O)C(c1ccccc1)C1CCN(C(=O)c2cnc(N)c(OCc3c(Cl)cccc3Cl)c2)CC1 [Example L-192] | 44%

Reference: patent US20050009840A1 (SUGEN, INC., priority 2003, published 2005)
